# Where two headings read alike, the source gives them in different places.
# Key:
# [1] = system: S. aureus strains; test: MIC, summary in text for S. aureus strains; conditions: Staphylococcus aureus
# Protocol: (§2) Representatives of Gram-positive and Gram-negative bacteria were selected for the antimicrobial susceptibility tests. Three Gram-positive reference strains (Staphylococcus aureus ATCC 29213, Streptococcus pneumoniae ATCC 49619, and Enterococcus faecalis ATCC 29212) and two Gram-negative reference strains (Escherichia coli ATCC 25922 and Pseudomonas aeruginosa ATCC 27853) were used. Furthermore, antibacterial activity of the isolated compounds was also assessed against recently isolated clinical strains, selected and characterized as resistant or multidrug-resistant (MDR), from the MicroMiB collection owned and maintained by the Laboratory of Clinical Microbiology and Virology of the University of Milano-Bicocca, Monza, Italy: a methicillin-resistant Staphylococcus aureus (MRSA) Monza-PFI, a fluoroquinolone-resistant S. aureus Monza-FD1, and a macrolide-resistant S. pneumoniae Monza-82.
# (§3) MICs were determined following Clinical and Laboratory Standards Institute (CLSI) guidelines for the broth microdilution method [33]. […]
# (§4) The plates were incubated at 37 °C for 18–24 h. After the incubation, each well was checked for the absence of bacterial pellets and the clearness of the solution; then, the MIC value (μg/mL), defined as the lowest concentration of antimicrobial agent causing visible inhibition of bacterial growth, was determined.
# [2] = system: Staphylococcus aureus ATCC 29213; test: MIC, broth microdilution (CLSI); format: cell-based
# [3] = system: Pseudomonas aeruginosa ATCC 27853; test: MIC, broth microdilution (CLSI); format: cell-based
# [4] = system: fluoroquinolone-resistant S. aureus Monza-FD1; test: MIC, broth microdilution (CLSI); format: cell-based, Staphylococcus aureus
# [5] = system: macrolide-resistant S. pneumoniae Monza-82; test: MIC, broth microdilution (CLSI); format: cell-based, Streptococcus pneumoniae; conditions: for sensitivity of the strain to the compound: S. pneumoniae Monza-82
# [6] = system: Streptococcus pneumoniae ATCC 49619; test: MIC, broth microdilution (CLSI); format: cell-based
# [7] = system: methicillin-resistant Staphylococcus aureus (MRSA) Monza-PFI; test: MIC, broth microdilution (CLSI); format: cell-based
# [8] = system: Enterococcus faecalis ATCC 29212; test: MIC, broth microdilution (CLSI); format: cell-based
# [9] = system: macrolide-resistant S. pneumoniae Monza-82; test: MBC determination (plating of MIC wells); format: cell-based, Streptococcus pneumoniae; conditions: for MBC: Streptococcus pneumoniae, S. pneumoniae Monza 82 (macrolide-resistant), read-out: MBC
# Protocol: (§1) Plates were incubated at 37 °C in aerobic conditions or in 5% CO2 atmosphere and checked for bacterial growth after 24 h.
# [10] = system: Staphylococcus aureus ATCC 29213; test: MBC determination (plating of MIC wells); format: cell-based; conditions: ATCC29213, S. aureus ATCC 29213, read-out: MBC
# Protocol: as §1
# [11] = system: methicillin-resistant Staphylococcus aureus (MRSA) Monza-PFI; test: MBC determination (plating of MIC wells); format: cell-based; conditions: S. aureus Monza-PFI (MRSA), read-out: MBC
# Protocol: as §1
# [12] = system: fluoroquinolone-resistant S. aureus Monza-FD1; test: MBC determination (plating of MIC wells); format: cell-based; conditions: Staphylococcus aureus; S. aureus Monza-FD1 (fluoroquinolone-resistant); read-out: MBC
# Protocol: as §1
# [13] = system: Mycobacterium tuberculosis; design: method as in ref 86 Ganihigama et al.; conditions: ref 86 Ganihigama et al.; cited from earlier work
# [14] = system: Escherichia coli ATCC 25922; test: MIC, broth microdilution (CLSI); format: cell-based
# [15] = system: reference strains and multidrug-resistant isolates; test: Antibacterial activity, whole panel (MIC); conditions: concentrations tested 0.015–32 μg/mL
# Protocol: as §2, §3, §4
# [16] = in vitro; conditions: dog
# Protocol: (§5) African green monkey kidney cells (VERO, ATCC-American Type Culture Collection CCL-81) and Madin Darby Canine Kidney cells (MDCK, ATCC® CRL-2936™) were propagated in Dulbecco’s modified Eagle medium (DMEM; Euroclone), supplemented with 10% fetal bovine serum (FBS; Euroclone), 2 mM L-glutamine, 1 mM sodium pyruvate, 100 U/mL penicillin, and 100 μg/mL streptomycin sulfate.
# (§6) The plates were incubated for 48 h at 37 °C, and then 100 μL of CellTiter-Glo reagent (Promega) was added to lyse the cells and to determine cell viability according to the producer’s instructions.
# [17] = in vitro; conditions: African green monkey
# Protocol: as §5, §6
# [18] = system: herpes simplex virus 1 (HSV-1) clinical isolate; test: Plaque reduction assay (PRA) on VERO cells; format: cell-based; conditions: 48 h p.i.
# [19] = system: influenza A virus strain A/Puerto Rico/8/34 (IAV); test: Plaque reduction assay (PRA) on MDCK cells; format: cell-based; conditions: Influenza A virus, MDCK, 48 h; read-out: inhibition of replication of IAV
# [20] = system: bacteria; design: method as in ref 20 Zin et al.; conditions: ref 20 Zin et al.; cited from earlier work
# [21] = system: Klebsiella pneumoniae; design: method as in PMID 16261521; conditions: cited from earlier work
# [22] = system: Micrococcus luteus; design: method as in PMID 16261521; conditions: cited from earlier work
# [23] = system: P. aeruginosa; design: method as in PMID 16261521; conditions: cited from earlier work
# [24] = ATCC29213, S. aureus ATCC 29213, read-out: MIC
# [25] = ATCC27853, P. aeruginosa ATCC 27853, read-out: MIC
# [26] = Staphylococcus aureus, S. aureus Monza-FD1 (fluoroquinolone-resistant), read-out: MIC
# [27] = Streptococcus pneumoniae, S. pneumoniae Monza 82 (macrolide-resistant), read-out: MIC
# [28] = ATCC49619, S. pneumoniae ATCC 49619, read-out: MIC
# [29] = S. aureus Monza-PFI (MRSA), read-out: MIC
# [30] = ATCC29212, E. faecalis ATCC 29212, read-out: MIC
# [31] = ATCC25922, E. coli ATCC 25922, read-out: MIC
SMILES,"MIC [2, 24] [µg/mL]","MIC [3, 25] [µg/mL]","MIC [4, 26] [µg/mL]","MIC [5, 27] [µg/mL]","MIC [6, 28] [µg/mL]","MIC [7, 29] [µg/mL]","MIC [8, 30] [µg/mL]",MBC [9] [µg/mL],"MIC [14, 31] [µg/mL]",further results
"COc1cc(O)cc2cc3c(c(O)c12)C(=O)C[C@](C)(O)C3 [Asperflavin (8), asperflavin]",64,> 128,64,32,> 128,128,> 128,128,> 128,MIC [1]: 64 µg/mL; bactericidal activity ([9]; S. pneumoniae Monza-82 strain only): positive results; MBC [10]: > 128 µg/mL; MBC [11]: > 128 µg/mL; MBC [12]: > 128 µg/mL; MIC [13]: 25 µg/mL
"COc1cc(O)c2c(c1)C(=O)c1cc(C)c(C(=O)O)c(O)c1C2=O [Cinnalutein (9), cinnalutein]",> 128,> 128,128,32,> 128,> 128,> 128,> 128,> 128,MIC ([4]; S. aureus Monza-FD1 (fluoroquinolone-resistant)): 128 µg/mL; MIC ([5]; S. pneumoniae Monza 82 (macrolide-resistant)): 32 µg/mL; MBC [12]: > 128 µg/mL
"C[C@@H]1NC(=O)[C@H](Cc2c[nH]c3ccccc23)NC1=O [Cyclo-L-Trp-L-Ala (10), cyclo-L-Trp-L-Ala]",> 128,> 128,> 128,> 128,> 128,> 128,> 128,–,> 128,–
"C=CC(C)(C)c1[nH]c2c(CC=C(C)C)cc(CC=C(C)C)cc2c1C[C@@H]1NC(=O)[C@H](C)NC1=O [Echinulin (1), echinulin]",–,–,–,–,–,–,–,–,–,MIC ([2]; ATCC29213): > 128 µg/mL; MIC ([3]; ATCC27853): > 128 µg/mL; MIC ([4]; Staphylococcus aureus): > 128 µg/mL; MIC ([5]; Streptococcus pneumoniae): > 128 µg/mL; MIC ([6]; ATCC49619): > 128 µg/mL; MIC ([7]; MRSA): > 128 µg/mL; MIC ([8]; ATCC29212): > 128 µg/mL; MIC ([14]; ATCC25922): > 128 µg/mL
"CC[C@H]1OC(=O)[C@H](C)[C@@H](O[C@H]2C[C@@](C)(OC)[C@@H](O)[C@H](C)O2)[C@H](C)[C@@H](O[C@@H]2O[C@H](C)C[C@H](N(C)C)[C@H]2O)[C@](C)(O)C[C@@H](C)C(=O)[C@H](C)[C@@H](O)[C@]1(C)O [Erythromycin, erythromycin, reference compound]",0.5,–,0.5,16,0.12,8,2,–,–,–
"CCCCCCCc1c(O)cc(CC=C(C)C)c(O)c1C=O [Flavoglaucin (5), flavoglaucin]",> 32,> 32,> 32,> 32,> 32,> 32,> 32,–,> 32,antibacterial activity [15]: did not show antibacterial activity; CC50 at 48 h [16]: < 12.5 µg/mL; CC50 at 48 h [17]: < 12.5 µg/mL
"CC(=O)O[C@H]1C[C@@]2(C)[C@@H](C[C@@H](O)[C@H]3[C@@]4(C)CC[C@@H](O)[C@@H](C)[C@@H]4CC[C@@]32C)/C1=C(\CCC=C(C)C)C(=O)O [Fusidic acid, fusidic acid, reference compound]",0.12,–,–,–,4,–,4,–,–,–
"CNC(C)C1CCC(N)C(OC2C(N)CC(N)C(OC3OCC(C)(O)C(NC)C3O)C2O)O1 (centres unmarked) [Gentamicin, reference compound]",0.5,1,1,–,–,> 128,> 128,–,0.5,–
"C=CC(C)(C)c1[nH]c2cc(CC=C(C)C)ccc2c1/C=C1\NC(=O)[C@H](C)NC1=O [Neoechinulin D (7), neoechinulin D]",> 128,> 128,> 128,64,> 128,> 128,> 128,> 128,> 128,"inhibition at 50 µg/mL ([18]; Human alphaherpesvirus 1, compound at 50 µg/mL, read-out: inhibition of HSV-1 replication): 100%; inhibition of HSV-1 replication ([18]; compound at 50 µg/mL): total inhibition; sensitivity of the strain to the compound [5]: showed sensitivity; inhibition at 50 µg/mL [19]: 70%"
"COc1cc(O)c2c(c1)C(=O)c1cc(C)cc(O)c1C2=O [Physcion (3), physcion]",> 32,> 32,> 32,16,> 32,> 32,> 32,> 32,> 32,"antibacterial activity [20]: no antibacterial activity; inhibition at 25 µg/mL ([18]; Human alphaherpesvirus 1, compound at 25 µg/mL, read-out: inhibition of HSV-1 replication): 100%; inhibition of HSV-1 replication ([18]; compound at 25 µg/mL): total inhibition; sensitivity of the strain to the compound [5]: showed sensitivity; MIC [21]: 250 µg/mL; MIC [22]: 200 µg/mL; MIC [23]: 200 µg/mL; inhibition at 25 µg/mL [19]: 80%"
"CN(C)[C@@H]1C(O)=C(C(N)=O)C(=O)[C@@]2(O)C(O)=C3C(=O)c4c(O)cccc4[C@@](C)(O)[C@H]3C[C@@H]12 [Tetracycline, tetracycline, reference compound]",0.12,8,1,≤ 0.06,0.12,1,8,–,1,–

# From publication PMC6520677, “Marine Fungi from the Sponge Grantia compressa: Biodiversity, Chemodiversity, and Biotechnological Potential” (Marine Drugs, 2019)
